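How tested: cells in 96-well plates exposed to compound for 48 hours at five concentrations. GI50: concentration for 50% inhibition of growth.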 Activity calls are given as the source filed them. Rule as the data show it: active = GI50 up to about 1.1 µM and inactive = higher.
Experiments:
Assay in all cases: NCI-60 cell line screen, 48 h
DU-145 = tested on: DU-145
HOP-62 = tested on: HOP-62
UACC-257 = tested on: UACC-257
CCRF-CEM = tested on: CCRF-CEM
SNB-19 = tested on: SNB-19
UO-31 = tested on: UO-31
OVCAR-4 = tested on: OVCAR-4
PC-3 = tested on: PC-3
CAKI-1 = tested on: CAKI-1
HCT-15 = tested on: HCT-15
RPMI-8226 = tested on: RPMI-8226
MOLT-4 = tested on: MOLT-4
MCF7 = tested on: MCF7
A549 = tested on: A549
M14 = tested on: M14
IGROV-1 = tested on: IGROV-1
MDA-MB-435 = tested on: MDA-MB-435
SK-OV-3 = tested on: SK-OV-3
OVCAR-5 = tested on: OVCAR-5
OVCAR-8 = tested on: OVCAR-8
HCT-116 = tested on: HCT-116
COLO 205 = tested on: COLO 205
MDA-MB-231 = tested on: MDA-MB-231
OVCAR-3 = tested on: OVCAR-3
EKVX = tested on: EKVX
KM12 = tested on: KM12
Malme-3M = tested on: Malme-3M
SK-MEL-2 = tested on: SK-MEL-2
NCI-H460 = tested on: NCI-H460
NCI-H226 = tested on: NCI-H226
NCI/ADR-RES = tested on: NCI/ADR-RES
SK-MEL-28 = tested on: SK-MEL-28
TK-10 = tested on: TK-10
BT-549 = tested on: BT-549
786-0 = tested on: 786-0
NCI-H23 = tested on: NCI-H23
HL-60 = tested on: HL-60
ACHN = tested on: ACHN
HT-29 = tested on: HT-29
SF-268 = tested on: SF-268
Hs-578T = tested on: Hs-578T
SF-295 = tested on: SF-295
NCI-H522 = tested on: NCI-H522
UACC-62 = tested on: UACC-62
A498 = tested on: A498
U-251 = tested on: U-251
SF-539 = tested on: SF-539
K562 = tested on: K562
MDA-N = tested on: MDA-N
SW-620 = tested on: SW-620
LOX IMVI = tested on: LOX IMVI
SK-MEL-5 = tested on: SK-MEL-5
HCC 2998 = tested on: HCC 2998
SN12C = tested on: SN12C
T47D = tested on: T47D
SR = tested on: SR
SNB-75 = tested on: SNB-75
HOP-92 = tested on: HOP-92

CN1C2CCC1C(C(O)c1ccccc1[N+](=O)[O-])C(=O)C2 (stereo not drawn)
GI50 (DU-145): 28.3 µM (inactive) | GI50 (HOP-62): 45.3 µM (inactive) | GI50 (UACC-257): > 100 µM (inactive) | GI50 (CCRF-CEM): 46.9 µM (inactive) | GI50 (SNB-19): > 100 µM (inactive) | GI50 (UO-31): 47.1 µM (inactive) | GI50 (OVCAR-4): 77.3 µM (inactive) | GI50 (PC-3): 45.7 µM (inactive) | GI50 (CAKI-1): 38.4 µM (inactive) | GI50 (HCT-15): 19.5 µM | GI50 (RPMI-8226): 40.8 µM (inactive) | GI50 (MOLT-4): 47.4 µM (inactive) | GI50 (MCF7): 39.1 µM (inactive) | GI50 (A549): > 100 µM (inactive) | GI50 (M14): 35.2 µM (inactive) | GI50 (IGROV-1): 24.9 µM (inactive) | GI50 (MDA-MB-435): 23.6 µM (inactive) | GI50 (SK-OV-3): > 100 µM (inactive) | GI50 (OVCAR-5): > 100 µM (inactive) | GI50 (OVCAR-8): 31.6 µM (inactive) | GI50 (HCT-116): 32.3 µM (inactive) | GI50 (COLO 205): 34.6 µM (inactive) | GI50 (MDA-MB-231): 64 µM (inactive) | GI50 (OVCAR-3): 34.7 µM (inactive) | GI50 (EKVX): > 100 µM (inactive) | GI50 (KM12): 36.5 µM (inactive) | GI50 (Malme-3M): > 100 µM (inactive) | GI50 (SK-MEL-2): > 100 µM (inactive) | GI50 (NCI-H460): > 100 µM (inactive) | GI50 (NCI-H226): 24.2 µM (inactive) | GI50 (NCI/ADR-RES): 23.4 µM (inactive) | GI50 (SK-MEL-28): > 100 µM (inactive) | GI50 (TK-10): > 100 µM (inactive) | GI50 (BT-549): 43.9 µM (inactive) | GI50 (786-0): 44 µM (inactive) | GI50 (NCI-H23): 73.8 µM (inactive) | GI50 (HL-60): 31.8 µM (inactive) | GI50 (ACHN): > 100 µM (inactive) | GI50 (HT-29): 32.4 µM (inactive) | GI50 (SF-268): 57.1 µM (inactive) | GI50 (Hs-578T): 53.2 µM (inactive) | GI50 (SF-295): 58.1 µM (inactive) | GI50 (NCI-H522): 40.3 µM (inactive) | GI50 (UACC-62): > 100 µM (inactive) | GI50 (A498): > 100 µM (inactive) | GI50 (U-251): > 100 µM (inactive) | GI50 (SF-539): 29.8 µM (inactive) | GI50 (K562): 32.1 µM (inactive) | GI50 (MDA-N): 27 µM (inactive) | GI50 (SW-620): 45.2 µM (inactive) | GI50 (LOX IMVI): 41.7 µM (inactive) | GI50 (SK-MEL-5): 31.1 µM (inactive) | GI50 (HCC 2998): > 100 µM (inactive) | GI50 (SN12C): 33.7 µM (inactive) | GI50 (T47D): 26.6 µM (inactive)

CN(C)CC1CCC/C(=C\c2ccc(OC(=O)c3ccc(Cl)cc3)cc2)C1=O (stereo not drawn)
GI50 (DU-145): 2.39 µM (inactive) | GI50 (HOP-62): 3.99 µM (inactive) | GI50 (UACC-257): 4.29 µM (inactive) | GI50 (CCRF-CEM): 0.33 µM (active) | GI50 (SNB-19): 3.36 µM (inactive) | GI50 (UO-31): 1.5 µM (inactive) | GI50 (SR): 583 nM (active) | GI50 (OVCAR-4): 2.8 µM (inactive) | GI50 (PC-3): 6.04 µM (inactive) | GI50 (CAKI-1): 2.19 µM (inactive) | GI50 (HCT-15): 1.57 µM | GI50 (RPMI-8226): 0.465 µM (active) | GI50 (MOLT-4): 0.661 µM (active) | GI50 (MCF7): 0.33 µM (active) | GI50 (A549): 2.38 µM (inactive) | GI50 (SNB-75): 4.12 µM (inactive) | GI50 (HOP-92): 2.07 µM (inactive) | GI50 (M14): 1.68 µM (inactive) | GI50 (IGROV-1): 2.23 µM (inactive) | GI50 (MDA-MB-435): 1.95 µM (inactive) | GI50 (SK-OV-3): 10.3 µM (inactive) | GI50 (OVCAR-5): 2.25 µM (inactive) | GI50 (OVCAR-8): 1.58 µM (inactive) | GI50 (HCT-116): 0.832 µM (active) | GI50 (COLO 205): 1.97 µM (inactive) | GI50 (MDA-MB-231): 2.45 µM (inactive) | GI50 (OVCAR-3): 1.6 µM (inactive) | GI50 (EKVX): 2.34 µM (inactive) | GI50 (KM12): 1.57 µM (inactive) | GI50 (Malme-3M): 2.55 µM (inactive) | GI50 (SK-MEL-2): 4.31 µM (inactive) | GI50 (NCI-H460): 5.36 µM (inactive) | GI50 (NCI-H226): 3.06 µM (inactive) | GI50 (NCI/ADR-RES): 2.12 µM (inactive) | GI50 (SK-MEL-28): 3.15 µM (inactive) | GI50 (TK-10): 1.95 µM (inactive) | GI50 (BT-549): 2.81 µM (inactive) | GI50 (786-0): 0.867 µM (active) | GI50 (NCI-H23): 1.69 µM (inactive) | GI50 (HL-60): 1.32 µM (inactive) | GI50 (ACHN): 3.57 µM (inactive) | GI50 (HT-29): 1.95 µM (inactive) | GI50 (SF-268): 4.26 µM (inactive) | GI50 (Hs-578T): 2.57 µM (inactive) | GI50 (SF-295): 3.84 µM (inactive) | GI50 (UACC-62): 3.3 µM (inactive) | GI50 (A498): 7.26 µM (inactive) | GI50 (U-251): 1.5 µM (inactive) | GI50 (SF-539): 3 µM (inactive) | GI50 (K562): 0.912 µM (active) | GI50 (MDA-N): 2.38 µM (inactive) | GI50 (SW-620): 1.1 µM (active) | GI50 (LOX IMVI): 0.493 µM (active) | GI50 (SK-MEL-5): 3.69 µM (inactive) | GI50 (HCC 2998): 9.95 µM (inactive) | GI50 (SN12C): 2.14 µM (inactive) | GI50 (T47D): 0.757 µM (active)

Cc1ccc(S(=O)(=O)N(CC(O)c2ccccc2)c2ccccc2F)cc1 (stereo not drawn)
GI50 (DU-145): 16.1 µM (inactive) | GI50 (HOP-62): 16.8 µM (inactive) | GI50 (UACC-257): 4.65 µM (inactive) | GI50 (CCRF-CEM): 25.3 µM (inactive) | GI50 (SNB-19): 18 µM (inactive) | GI50 (UO-31): 16.2 µM (inactive) | GI50 (OVCAR-4): 13.5 µM (inactive) | GI50 (PC-3): 15.5 µM (inactive) | GI50 (CAKI-1): 15.7 µM (inactive) | GI50 (HCT-15): 17.7 µM | GI50 (RPMI-8226): 17 µM (inactive) | GI50 (MCF7): 13 µM (inactive) | GI50 (A549): 19.5 µM (inactive) | GI50 (SNB-75): 12.3 µM (inactive) | GI50 (HOP-92): 10.2 µM (inactive) | GI50 (M14): 16.4 µM (inactive) | GI50 (IGROV-1): 21.7 µM (inactive) | GI50 (MDA-MB-435): 16.2 µM (inactive) | GI50 (SK-OV-3): 17.4 µM (inactive) | GI50 (OVCAR-5): 19.2 µM (inactive) | GI50 (OVCAR-8): 19.3 µM (inactive) | GI50 (HCT-116): 12.7 µM (inactive) | GI50 (COLO 205): 15.4 µM (inactive) | GI50 (MDA-MB-231): 18.2 µM (inactive) | GI50 (OVCAR-3): 11.3 µM (inactive) | GI50 (EKVX): 35.6 µM (inactive) | GI50 (KM12): 16.8 µM (inactive) | GI50 (Malme-3M): 16.4 µM (inactive) | GI50 (SK-MEL-2): 17.9 µM (inactive) | GI50 (NCI-H460): 17.4 µM (inactive) | GI50 (NCI-H226): 20.7 µM (inactive) | GI50 (NCI/ADR-RES): 16.4 µM (inactive) | GI50 (SK-MEL-28): 18 µM (inactive) | GI50 (TK-10): 19.7 µM (inactive) | GI50 (BT-549): 16.6 µM (inactive) | GI50 (786-0): 17.6 µM (inactive) | GI50 (NCI-H23): 16.6 µM (inactive) | GI50 (HL-60): 1.13 µM (inactive) | GI50 (ACHN): 20.2 µM (inactive) | GI50 (HT-29): 19.3 µM (inactive) | GI50 (SF-268): 15.9 µM (inactive) | GI50 (Hs-578T): 16.9 µM (inactive) | GI50 (SF-295): 17.5 µM (inactive) | GI50 (NCI-H522): 17.3 µM (inactive) | GI50 (UACC-62): 12.2 µM (inactive) | GI50 (A498): 19.9 µM (inactive) | GI50 (U-251): 19.5 µM (inactive) | GI50 (SF-539): 16.6 µM (inactive) | GI50 (K562): 17 µM (inactive) | GI50 (MDA-N): 15.7 µM (inactive) | GI50 (SW-620): 19.6 µM (inactive) | GI50 (LOX IMVI): 16.1 µM (inactive) | GI50 (SK-MEL-5): 15.9 µM (inactive) | GI50 (HCC 2998): 24.2 µM (inactive) | GI50 (SN12C): 17.8 µM (inactive) | GI50 (T47D): 14.5 µM (inactive)

— ChEMBL document CHEMBL1201862, “PubChem BioAssay data set” (2004)
